From US10392347B2, “2,4-dihydroxy-nicotinamides as APJ agonists” (BRISTOL-MYERS SQUIBB COMPANY, priority 2015, dated 2019)
Read-outs that look alike come from different tables or passages of the source.

Target: T1, human APJ receptor (Homo sapiens, UniProt P35414)
T1 construct: expressed in transfected cells
T1 sequence (P35414 1-380): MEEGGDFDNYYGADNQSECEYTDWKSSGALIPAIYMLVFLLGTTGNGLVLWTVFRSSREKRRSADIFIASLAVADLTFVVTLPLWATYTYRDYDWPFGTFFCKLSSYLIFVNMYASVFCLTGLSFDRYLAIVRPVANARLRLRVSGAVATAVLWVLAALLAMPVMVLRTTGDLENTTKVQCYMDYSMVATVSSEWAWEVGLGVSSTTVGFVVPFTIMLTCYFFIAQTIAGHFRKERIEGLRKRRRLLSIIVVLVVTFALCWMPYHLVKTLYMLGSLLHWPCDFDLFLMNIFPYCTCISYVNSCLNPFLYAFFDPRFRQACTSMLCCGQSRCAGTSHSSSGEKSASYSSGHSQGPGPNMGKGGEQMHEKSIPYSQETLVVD
Assay: Intracellular cAMP accumulation assay (APJ hcAMP, HTRF)
Assay type: cell-based
Details: HEK293 cells stably expressing human APJ
Description: Intracellular cAMP Accumulation Assay
HEK293 cells stably expressing human APJ receptor were used to assess the activity of compounds. Cultured cells were detached and resuspended in the cAMP Homogeneous Time-Resolved Fluorescence (HTRF) assay buffer (Cisbio cat; #62AM4PEJ). […] Serial dilutions of a compound together with assay buffer containing […] and 2 μM forskolin were added to each well containing 5,000 cells and incubated for 30 minutes at room temperature. Subsequently, cAMP D2 reagent was added in the lysis buffer followed by the EuK antibody (Cisbio; cat #62AM4PEJ) and incubated for 60 min. The fluorescence emission ratio was measured using fluorometer. The intracellular cAMP concentrations (compound-stimulated inhibition of forskolin-mediated cAMP production) were calculated by extrapolation from a standard curve using known cAMP concentrations. The EC50 values were obtained by fitting the data to a sigmoidal concentration-response curve with variable slope.
The EC50 value of each compound is presented at the end of the example description.
The biological activity of the exemplified compounds of this invention determined by the assay described above is shown at the end of each example.

[1] = Table 2, forskolin-stimulated cAMP, read-out: APJ cAMP EC50
[2] = Table 1, forskolin-stimulated cAMP, read-out: APJ cAMP EC50

Structure (SMILES) | EC50 [2] | also measured
CCCCc1nc(O)c(C(=O)N2CCCC2c2ccccn2)c(O)c1-c1c(OC)cccc1OC (racemic) [Example 8, 6-butyl-5-(2,6-dimethoxyphenyl)-3-[2-(pyridin-2-yl)pyrrolidine-1-carbonyl]pyridine-2,4-diol] |  | EC50 [1]: 0.01 to 10 nM
CCCCc1nc(O)c(C(=O)N2CCC(c3nc(-c4cc(C)c(OC)cc4Cl)c(C)s3)C2)c(O)c1-c1c(OC)cccc1OC (racemic) [Example 9, 6-butyl-3-{3-[4-(2-chloro-4-methoxy-5-methylphenyl)-5-methyl-1,3-thiazol-2-yl]pyrrolidine-1-carbonyl}-5-(2,6-dimethoxyphenyl)pyridine-2,4-diol] |  | EC50 [1]: 0.01 to 10 nM
CCCCc1nc(O)c(C(=O)N2CCC(c3cccc(Cl)c3)C2)c(O)c1-c1c(OC)cccc1OC (single isomer, unassigned) [Example 37, 6-butyl-3-[3-(3-chlorophenyl)pyrrolidine-1-carbonyl]-5-(2,6-dimethoxyphenyl)pyridine-2,4-diol] |  | EC50 [1]: 0.01 to 10 nM
CCCCc1nc(O)c(C(=O)N2CCC(c3cccc(Cl)c3)C2)c(O)c1-c1c(OC)cccc1OC (single isomer, unassigned) [Example 38, 6-butyl-3-[3-(3-chlorophenyl)pyrrolidine-1-carbonyl]-5-(2,6-dimethoxyphenyl)pyridine-2,4-diol] |  | EC50 [1]: 0.01 to 10 nM
CCCCc1nc(O)c(C(=O)N2CCC(c3ccc(F)cc3)C2)c(O)c1-c1c(OC)cccc1OC (single isomer, unassigned) [Example 39, 6-butyl-5-(2,6-dimethoxyphenyl)-3-[3-(4-fluorophenyl)pyrrolidine-1-carbonyl]pyridine-2,4-diol] |  | EC50 [1]: 0.01 to 10 nM
CCCCc1nc(O)c(C(=O)N2CCC(c3ccc(F)cc3)C2)c(O)c1-c1c(OC)cccc1OC (single isomer, unassigned) [Example 40, 6-butyl-5-(2,6-dimethoxyphenyl)-3-[3-(4-fluorophenyl)pyrrolidine-1-carbonyl]pyridine-2,4-diol] |  | EC50 [1]: 0.01 to 10 nM
CCCCc1nc(O)c(C(=O)N2CCC(c3ccc(Cl)cn3)C2)c(O)c1-c1c(OC)cccc1OC (single isomer, unassigned) [Example 74, (6-butyl-5-(2,6-dimethoxyphenyl)-2,4-dihydroxypyridin-3-yl)(3-(5-chloropyridin-2-yl)pyrrolidin-1-yl)methanone] |  | EC50 (read-out: Human APJ cAMP EC50 Potency range): 0.01 to 10 nM
CCNCc1nc(O)c(C(=O)N2CCC(c3cccc(F)c3)C2)c(O)c1-c1c(OC)cccc1OC (single isomer, unassigned) [Example 149, 5-(2,6-dimethoxyphenyl)-6-[(ethylamino)methyl]-3-[3-(3-fluorophenyl)pyrrolidine-1-carbonyl]pyridine-2,4-diol] |  | EC50 (read-out: Human cAMP Potency range): 100 to 300 nM
CCCCc1nc(O)c(C(=O)N(C)CCCCc2ccccc2)c(O)c1-c1c(OC)cccc1OC [Example 2, 6-butyl-5-(2,6-dimethoxyphenyl)-2,4-dihydroxy-N-methyl-N-(4-phenylbutyl)pyridine-3-carboxamide] | 100 to 300 nM | 
CCCCc1nc(O)c(C(=O)N2CCN(c3nccn3C)CC2)c(O)c1-c1c(OC)cccc1OC [Example 3, 6-butyl-5-(2,6-dimethoxyphenyl)-3-[4-(1-methyl-1H-imidazol-2-yl)piperazine-1-carbonyl]pyridine-2,4-diol] | 100 to 300 nM | 
CCCCc1nc(O)c(C(=O)N2CCC(c3nc(CCC)no3)CC2)c(O)c1-c1c(OC)cccc1OC [Example 5, 6-butyl-5-(2,6-dimethoxyphenyl)-3-[4-(3-propyl-1,2,4-oxadiazol-5-yl)piperidine-1-carbonyl]pyridine-2,4-diol] | 10 to 100 nM | 
CCCCc1nc(O)c(C(=O)N2CCN(c3ccc(Cl)cn3)CC2)c(O)c1-c1c(OC)cccc1OC [Example 6, 6-butyl-3-[4-(5-chloropyridin-2-yl)piperazine-1-carbonyl]-5-(2,6-dimethoxyphenyl)pyridine-2,4-diol] | 10 to 100 nM | 
CCCCc1nc(O)c(C(=O)N2CCN(c3ccc(OCCOC)cc3)CC2)c(O)c1-c1c(OC)cccc1OC [Example 7, 6-butyl-5-(2,6-dimethoxyphenyl)-3-{4-[4-(2-methoxyethoxy)phenyl]piperazine-1-carbonyl}pyridine-2,4-diol] | 100 to 300 nM | 
CCCCc1nc(O)c(C(=O)N2CCN(c3ccc(NC(=O)OC)cc3)CC2)c(O)c1-c1c(OC)cccc1OC [Example 10, methyl N-(4-{4-[6-butyl-5-(2,6-dimethoxyphenyl)-2,4-dihydroxypyridine-3-carbonyl]piperazin-1-yl}phenyl)carbamate] | 10 to 100 nM | 
CCCCc1nc(O)c(C(=O)N2CCN(c3ncccc3C(F)(F)F)CC2)c(O)c1-c1c(OC)cccc1OC [Example 11, 6-butyl-5-(2,6-dimethoxyphenyl)-3-{4-[3-(trifluoromethyl)pyridin-2-yl]piperazine-1-carbonyl}pyridine-2,4-diol] | 10 to 100 nM | 
CCCCc1nc(O)c(C(=O)N2CCN(c3nccc(C(F)(F)F)n3)CC2)c(O)c1-c1c(OC)cccc1OC [Example 13, 6-butyl-5-(2,6-dimethoxyphenyl)-3-{4-[4-(trifluoromethyl)pyrimidin-2-yl]piperazine-1-carbonyl}pyridine-2,4-diol] | 10 to 100 nM | 
CCCCc1nc(O)c(C(=O)N2CCN(C(c3ccccc3)c3ccccc3)CC2)c(O)c1-c1c(OC)cccc1OC [Example 16, 6-butyl-5-(2,6-dimethoxyphenyl)-3-[4-(diphenylmethyl)piperazine-1-carbonyl]pyridine-2,4-diol] | 0.01 to 10 nM | 
CCCCc1nc(O)c(C(=O)N2CCC(c3[nH]cnc3C)CC2)c(O)c1-c1c(OC)cccc1OC [Example 17, 6-butyl-5-(2,6-dimethoxyphenyl)-3-[4-(4-methyl-1H-imidazol-5-yl)piperidine-1-carbonyl]pyridine-2,4-diol] | 10 to 100 nM | 
CCCCc1nc(O)c(C(=O)N2CCN(c3ccc(OC)cc3)CC2)c(O)c1-c1c(OC)cccc1OC [Example 18, 6-butyl-5-(2,6-dimethoxyphenyl)-3-[4-(4-methoxyphenyl)piperazine-1-carbonyl]pyridine-2,4-diol] | 10 to 100 nM | 

Now from value to molecule, other results behind:

EC50 [2] | Structure (SMILES) | also measured
100 to 300 nM | CCCCc1nc(O)c(C(=O)N2CCC(O)(c3cccnc3)CC2)c(O)c1-c1c(OC)cccc1OC [Example 4, 6-butyl-5-(2,6-dimethoxyphenyl)-3-[4-hydroxy-4-(pyridin-3-yl)piperidine-1-carbonyl]pyridine-2,4-diol] | 
0.01 to 10 nM | CCCCc1nc(O)c(C(=O)N2CCN(c3ccccc3OC)CC2)c(O)c1-c1c(OC)cccc1OC [Example 12, 6-butyl-5-(2,6-dimethoxyphenyl)-3-[4-(2-methoxyphenyl)piperazine-1-carbonyl]pyridine-2,4-diol] | 
0.01 to 10 nM | CCCCc1nc(O)c(C(=O)N2CCC(Cc3ccccc3)CC2)c(O)c1-c1c(OC)cccc1OC [Example 14, 3-(4-benzylpiperidine-1-carbonyl)-6-butyl-5-(2,6-dimethoxyphenyl)pyridine-2,4-diol] | 
0.01 to 10 nM | CCCCc1nc(O)c(C(=O)N(C)CCc2ccccn2)c(O)c1-c1c(OC)cccc1OC [Example 15, 6-butyl-5-(2,6-dimethoxyphenyl)-2,4-dihydroxy-N-methyl-N-[2-(pyridin-2-yl)ethyl]pyridine-3-carboxamide] | 
10 to 100 nM | CCCCc1nc(O)c(C(=O)N2CCC(c3ccccc3OC)CC2)c(O)c1-c1c(OC)cccc1OC [Example 19, 6-butyl-5-(2,6-dimethoxyphenyl)-3-[4-(2-methoxyphenyl)piperidine-1-carbonyl]pyridine-2,4-diol] | 
